Patent US12076307B2, “Compositions for prevention or treatment of acute radiation syndrome and other radiation exposure” (priority 2017, dated 2024)
“And” between values parts separate entries of the source, which are not always exact repeats. Equal entries are not always repeated.

How the values were obtained:
Balb/c mice, 6.11 Gy TBI = assay: Structural analog / calorie effect study: EC-18, PLH, olive oil in 6.11 Gy ARS model; type: in vivo, mouse; conditions: 250 mg/kg daily
Description: Similarly, a structural analog efficacy study was conducted to identify the optimally functional molecule in the ARS murine model. The study was performed with the structural analog in which the acetyl group in EC-18 is replaced with a hydroxyl group (yielding palmitic linoleic hydroxyl glycerol, PLH) in 20 Balb/c mice (10 female and 10 male) per group. Mice were irradiated with TBI of 6.11Gy at day 0 and 250 mg/kg of EC-18 or PLH were given daily in-life.
The purpose of this study was to assess whether extra calories of EC-18 contribute to the enhanced survival in mice after exposure to a whole-body sublethal dose of γ-radiation. The study was performed with the structural analog in which the acetyl group in EC-18 is replaced with a hydroxyl group (yielding PLH) in a total of 100 BALB/c mice ([…]; 20 animals per study group) aged at 11 weeks. Mice were irradiated with TBI of 6.11Gy at day 0 and the same dosage (250 mg/kg) of EC-18, PLH, or olive oil (vehicle control) were given daily in-life.

[1] = Whole blood and lymphatic radioactivity in rats after single oral [14C]EC-18 100 mg/kg; type: in vivo, rat; conditions: 100 mg/kg oral, n=3; for Tmax: 100 mg/kg
Description: Male SD rats in fasted condition were administered a single dose of [^14C]EC-18 (oral dose of 100 mg/kg; vehicle: olive oil), and the radioactive concentration of the EC-18 was measured in whole blood samples at 0.5, 1, 2, 3, 4, 6, and 8 hrs after its administration. In parallel, male rats with a cannula inserted into the intestinal tract were administered a single dose of [^14C]EC-18 (oral dose of 100 mg/kg; vehicle: olive oil) and the concentration of EC-18-related radioactivity was measured in lymphatic fluid collected in conscious rats at 0.5, 1, 2, 3, 4, 6, and 8 hrs after its administration (FIG. 60). Then, the values of PK parameters were calculated using the quantitative data from whole blood and lymphatic fluid samples (Table 20). Following a single oral administration of [14C]EC-18, EC-18 concentration in the lymphatic fluid of rats was 10 to 53 times higher than that in whole blood (FIG. 60).

[2] = Pathway of excretion in rats after single oral [14C]EC-18; type: in vivo, rat; conditions: 50 mg/kg oral
Description: To assess the routes of EC-18 excretion, male rats were administered a single dose of [^14C]EC-18 (oral dose of 50 mg/kg), after which, radioactive concentrations were measured in urine, feces, and exhaled air in the chamber of the animals for 168 hrs, and in the body after the autopsy.

[3] = Whole-body autoradiography of rats after single oral [14C]EC-18; type: in vivo, rat; conditions: 200 mg/kg oral, fasted
Description: Male albino rats in fasted conditions were administered a single dose of [^14C]EC-18 (oral dose of 200 mg/kg, vehicle: olive oil). The distribution and levels of radioactivity in the body were observed by whole-body autoradiography performed at 0.25, 1, 8, and 24 hrs after [^14C]EC-18 administration.

[4] = Plasma radioactivity in rats after single oral or IV [14C]EC-18; type: in vivo, rat
Description: Male SD rats in the fed state were administered a single oral dose of 25, 50, or 100 mg/kg (vehicle: olive oil) or a single IV injection of 10 mg/kg of [^14C]EC-18 (EC-18 with radioactive isotope ^14C attached). Subsequently, the PK parameters were assessed. The concentration of radioactivity in rat plasma was measured by liquid scintillation counting (LSC) method after adding a scintillator (Clear-Sol I, Nacalai Tesque, Inc).

[5] = Plasma and lymphatic radioactivity after single oral [14C]EC-18 50 mg/kg in cannulated rats; type: in vivo, rat; conditions: 50 mg/kg oral; for Radioactive Concentration in Plasma: n=3
Description: After inserting a cannula into the intestinal tract of male SD rats, the rats in fed condition were given a single dose of [^14C]EC-18 (oral dose of 50 mg/kg; vehicle: olive oil), and samples were collected after 0.5, 1, 2, 4, 6, and 8 hrs of administration. In parallel, lymphatic fluid samples were collected from conscious rats up to 8 hrs after administration. The radioactive concentrations in rat plasma and lymphatic fluid were measured by LSC after adding a scintillator, and the quantified data are shown in Table 19.

[6] = Oral 25 mg/kg, plasma, fed, n=3
[7] = Oral 50 mg/kg, plasma, fed, n=3
[8] = Oral 100 mg/kg, plasma, fed, n=3

## CCCCC/C=C\C/C=C\CCCCCCCC(=O)OC(CO)COC(=O)CCCCCCCCCCCCCCC (stereo not drawn) [PLH, palmitic linoleic hydroxyl glycerol, reference compound]
Balb/c mice, 6.11 Gy TBI
  No. of mice that survived/total: 8/20
  Survival: 40%
  Survival time of decedents, Mean ± SEM: 18.8 ± 1.6 days
  Survival time of decedents, Median: 18 days
  body weight loss induced by irradiation: aggravated body weight loss
Balb/c mice, 6.11 Gy TBI; 250 mg/kg
  survival compared to control group: no statistically significant difference

## CCCCC/C=C\C/C=C\CCCCCCCC(=O)OC(COC(C)=O)COC(=O)CCCCCCCCCCCCCCC (stereo not drawn) [[^14C]EC-18]
[1]; Lymphatic Fluid
  AUC0-inf: 53900 ± 39100 μg eq · hr/mL
  AUC0-last: 20400 ± 600 μg eq · hr/mL
  Cmax: 1210 ± 200 µg/mL
  t1/2: 29.7 ± 28.1 h
  Tmax: 7.0 ± 2.0 h
[1]; Whole Blood, fasted
  AUC0-inf: 819 ± 130 μg eq · hr/mL
  AUC0-last: 496 ± 69 μg eq · hr/mL
  Cmax: 38.8 ± 9.5 µg/mL
  t1/2: 16.8 ± 1.9 h
  Tmax: 3.8 ± 2.9 h
[2]; 0-24 hr
  Cumulative Radioactive Concentration Relative to the Administered Dose, Cage-Cleaning Water: 0.0 ± 0.0%
[2]; 0-24 hr, 50 mg/kg
  Cumulative Radioactive Concentration Relative to the Administered Dose, Exhaled Air: 71.0 ± 3.2%
  Cumulative Radioactive Concentration Relative to the Administered Dose, Feces: 3.0 ± 0.5%
  Cumulative Radioactive Concentration Relative to the Administered Dose, Total: 75.9 ± 3.2%
  Cumulative Radioactive Concentration Relative to the Administered Dose, Urine: 1.9 ± 0.3%
[2]; 0-48 hr
  Cumulative Radioactive Concentration Relative to the Administered Dose, Cage-Cleaning Water: 0.1 ± 0.1%
  Cumulative Radioactive Concentration Relative to the Administered Dose, Exhaled Air: 75.0 ± 3.8%
  Cumulative Radioactive Concentration Relative to the Administered Dose, Feces: 3.6 ± 0.7%
  Cumulative Radioactive Concentration Relative to the Administered Dose, Total: 80.7 ± 3.8%
  Cumulative Radioactive Concentration Relative to the Administered Dose, Urine: 2.1 ± 0.3%
[2]; 0-72 hr
  Cumulative Radioactive Concentration Relative to the Administered Dose, Cage-Cleaning Water: 0.1 ± 0.0%
[2]; 0-72 hr, 50 mg/kg
  Cumulative Radioactive Concentration Relative to the Administered Dose, Exhaled Air: 76.7 ± 3.9%
  Cumulative Radioactive Concentration Relative to the Administered Dose, Feces: 3.8 ± 0.7%
  Cumulative Radioactive Concentration Relative to the Administered Dose, Total: 82.8 ± 3.9%
  Cumulative Radioactive Concentration Relative to the Administered Dose, Urine: 2.2 ± 0.3%
[2]; 0-96 hr
  Cumulative Radioactive Concentration Relative to the Administered Dose, Cage-Cleaning Water: 0.1 ± 0.0%
  Cumulative Radioactive Concentration Relative to the Administered Dose, Exhaled Air: 77.7 ± 3.9%
  Cumulative Radioactive Concentration Relative to the Administered Dose, Feces: 3.9 ± 0.7%
  Cumulative Radioactive Concentration Relative to the Administered Dose, Total: 84.0 ± 3.8%
  Cumulative Radioactive Concentration Relative to the Administered Dose, Urine: 2.3 ± 0.4%
[2]; 0-120 hr
  Cumulative Radioactive Concentration Relative to the Administered Dose, Cage-Cleaning Water: 0.1 ± 0.0%
  Cumulative Radioactive Concentration Relative to the Administered Dose, Exhaled Air: 78.4 ± 3.9%
  Cumulative Radioactive Concentration Relative to the Administered Dose, Feces: 4.0 ± 0.7%
  Cumulative Radioactive Concentration Relative to the Administered Dose, Total: 84.8 ± 3.8%
  Cumulative Radioactive Concentration Relative to the Administered Dose, Urine: 2.3 ± 0.4%
[2]; 0-144 hr
  Cumulative Radioactive Concentration Relative to the Administered Dose, Cage-Cleaning Water: 0.1 ± 0.0%
  Cumulative Radioactive Concentration Relative to the Administered Dose, Exhaled Air: 78.9 ± 3.9%
  Cumulative Radioactive Concentration Relative to the Administered Dose, Feces: 4.1 ± 0.7%
  Cumulative Radioactive Concentration Relative to the Administered Dose, Total: 85.4 ± 3.8%
  Cumulative Radioactive Concentration Relative to the Administered Dose, Urine: 2.3 ± 0.4%
[2]; 0-168 hr
  Cumulative Radioactive Concentration Relative to the Administered Dose, Cage-Cleaning Water: 0.1 ± 0.0%
[2]; 0-168 hr, 50 mg/kg
  Cumulative Radioactive Concentration Relative to the Administered Dose, Cadaver: 9.8 ± 1.0%
  Cumulative Radioactive Concentration Relative to the Administered Dose, Exhaled Air: 79.3 ± 3.9%
  Cumulative Radioactive Concentration Relative to the Administered Dose, Feces: 4.2 ± 0.7%
  Cumulative Radioactive Concentration Relative to the Administered Dose, Total: 95.7 ± 3.3%
  Cumulative Radioactive Concentration Relative to the Administered Dose, Urine: 2.3 ± 0.4%
[3]; 0.25 hr
  site of highest radioactivity: stomach and small intestine
[3]; 1 hr
  site of highest radioactivity: stomach and small intestine
[3]; 8 hrs
  site of highest radioactivity: inner walls of the stomach
[3]; 24 hrs
  radioactivity distribution: low radioactivity was observed in the liver
[4]; IV 10 mg/kg, plasma, fed, n=3
  AUClast: 215 ± 11 μg eq · hr/mL
  Cmax (= C0): 81.5 ± 3.4 μg eq/mL
  t1/2: 32.5 ± 1.2 h
[4]; Oral 25 mg/kg
  F: 46%
[4]; [6]
  AUClast: 224 ± 30 μg eq · hr/mL
  Cmax: 7.2 ± 1.4 μg eq/mL
  Tmax: 7.3 ± 5.0 h
  t1/2: 32.0 ± 3.1 h
[4]; Oral 50 mg/kg
  F: 49%
[4]; [7]
  AUClast: 473 ± 53 μg eq · hr/mL
  Cmax: 16.6 ± 1.4 μg eq/mL
  Tmax: 4.7 ± 2.3 h
  t1/2: 31.4 ± 1.8 h
[4]; Oral 100 mg/kg
  F: 42%
[4]; [8]
  AUClast: 830 ± 29 μg eq · hr/mL
  Cmax: 29.6 ± 2.7 μg eq/mL
  Tmax: 6.0 ± 3.5 h
  t1/2: 31.7 ± 3.5 h
[5]; 0.5 hr
  Radioactive Concentration in Plasma: 0.096 ± 0.096 μg eq/mL
[5]; 1 hr
  Radioactive Concentration in Plasma: 0.689 ± 0.796 μg eq/mL
[5]; 2 hr
  Radioactive Concentration in Plasma: 2.09 ± 1.65 μg eq/mL
[5]; 4 hr
  Radioactive Concentration in Plasma: 6.51 ± 2.21 μg eq/mL
[5]; 6 hr
  Radioactive Concentration in Plasma: 10.2 ± 2.7 μg eq/mL
[5]; 8 h
  radioactive concentration in plasma as share of the administered dose: approximately 28%
[5]; 8 hr, 50 mg/kg
  Radioactive Concentration in Plasma: 17.5 μg eq/mL and 17.5 ± 4.9 μg eq/mL
